The record followed here is ChEMBL document CHEMBL1152000, “Anti-allergy agents. 3. Angular tricyclic ether derivatives of the 1,8-naphthyridin-2(1H)-one ring system” (1994).

Common to all, as to assay type: functional
For test [1], the species on record is Cavia porcellus. As to the kind of experiment: In vitro percent inhibition of LTD4 release from sensitized guinea pig lung fragment at dose of 3 uM.
Test [2] deals with Cavia porcellus. In words: In vivo percent inhibition of ovalbumin induced bronchospasm in sensitized guinea pig after peroral administration at dose of 2 mg/kg for single dose. The note with it: route oral.
Test [3] is filed under the species Cavia porcellus. In words: In vitro percent inhibition of LTD4 release from sensitized guinea pig lung fragment at dose of 1 uM.
Test [4] relates to Cavia porcellus. As to the kind of experiment: In vivo percent inhibition of ovalbumin induced bronchospasm in sensitized guinea pig after peroral administration at dose of 1 mg/kg for single dose. Conditions: route oral.
For test [5], the system named is Cavia porcellus. In words: In vivo percent inhibition of ovalbumin induced bronchospasm in sensitized guinea pig after peroral administration at dose of 0.25 mg/kg for single dose. Conditions: route oral.
The subject of test [6] is Cavia porcellus. In words: In vivo percent inhibition of ovalbumin induced bronchospasm in sensitized guinea pig after peroral administration at dose of 0.5 mg/kg for multiple dose. Conditions: route oral.
Test [7] has as its system Cavia porcellus. In words: In vivo percent inhibition of ovalbumin induced bronchospasm in sensitized guinea pig after peroral administration at dose of 0.5 mg/kg for single dose. Conditions: route oral.
Test [8] is filed under the species Cavia porcellus. In words: In vitro percent inhibition of LTD4 release from sensitized guinea pig lung fragment at dose of 10 uM.
Test [9] relates to Cavia porcellus. As to the kind of experiment: In vivo percent inhibition of ovalbumin induced bronchospasm in sensitized guinea pig after peroral administration at dose of 12 mg/kg for single dose. The note with it: route oral.
For test [10], the system named is Cavia porcellus. As to the kind of experiment: In vivo percent inhibition of ovalbumin induced bronchospasm in sensitized guinea pig after peroral administration at dose of 25 mg/kg for single dose. Conditions: route oral.
The subject of test [11] is Cavia porcellus. As to the kind of experiment: In vivo percent inhibition of ovalbumin induced bronchospasm in sensitized guinea pig after peroral administration at dose of 3 mg/kg for single dose. The note with it: route oral.
Test [12] has as its system Cavia porcellus. In words: In vivo percent inhibition of ovalbumin induced bronchospasm in sensitized guinea pig after peroral administration at dose of 6.25 mg/kg for multiple dose. The note with it: route oral.
Test [13] concerns Cavia porcellus. In words: In vivo percent inhibition of ovalbumin induced bronchospasm in sensitized guinea pig after peroral administration at dose of 12.5 mg/kg for multiple dose. Conditions: route oral.
Test [14] deals with Cavia porcellus. As to the kind of experiment: In vivo percent inhibition of ovalbumin induced bronchospasm in sensitized guinea pig after peroral administration at dose of 10 mg/kg for single dose. Conditions: route oral.
The subject of test [15] is Cavia porcellus. In words: In vivo percent inhibition of ovalbumin induced bronchospasm in sensitized guinea pig after peroral administration at dose of 2 mg/kg for multiple dose. Conditions: route oral.
Test [16] deals with Cavia porcellus. In words: In vivo percent inhibition of ovalbumin induced bronchospasm in sensitized guinea pig after peroral administration at dose of 1 mg/kg for multiple dose. The note with it: route oral.
For test [17], the system named is Cavia porcellus. In words: In vivo percent inhibition of ovalbumin induced bronchospasm in sensitized guinea pig after peroral administration at dose of 3.13 mg/kg for multiple dose. Conditions: route oral.
Test [18] concerns Cavia porcellus. In words: In vivo percent inhibition of ovalbumin induced bronchospasm in sensitized guinea pig after peroral administration at dose of 5 mg/kg for single dose. Conditions: route oral.

SMILES strings stand for the structures.

In the case of `COc1ccc(-n2c(=O)c3c(c4cccnc42)OCC3)cc1`, the inhibition at 3 µM in test [1] came out at 17%.
Turning to `CC1Cc2c(c3cccnc3n(-c3cccc(Cl)c3)c2=O)O1` (stereo unspecified), in [2], the inhibition in vivo at 2 mg/kg amounted to 38%. The inhibition at 1 µM in [3] is 64%.
Consider `O=c1c2c(c3cccnc3n1-c1cccc(Cl)c1)OCCCC2`, for which the inhibition in vivo at 1 mg/kg in test [4] worked out at 74%. In addition, the inhibition in vivo at 2 mg/kg in test [2] amounted to 85%. Further, in test [1], the inhibition at 3 µM came to 62%. Moreover, the inhibition in vivo at 0.25 mg/kg in [5] came out at 27%. The inhibition in vivo at 0.5 mg/kg in test [6] was 50%; in test [7], 62%. The inhibition at 1 µM in test [3] stood at 100%.
On to `Cc1ccc(-n2c(=O)c3c(c4cccnc42)OCC3)cc1`, for which, in [8], the inhibition at 10 µM came out at 59%. Moreover, the inhibition at 3 µM in [1] stood at 28%.
Take `O=c1c2c(c3cccnc3n1-c1ccccc1)OCC2`: the inhibition in vivo at 12 mg/kg in [9] was 86%. Further, in [10], the inhibition in vivo at 25 mg/kg came to 79%. The inhibition in vivo at 3 mg/kg in [11] amounted to 42%. The inhibition in vivo at 6.25 mg/kg in test [12] is 65%. Also, the inhibition at 10 µM in test [8] was determined as 72%. The inhibition at 3 µM in [1] came to 54%. In addition, the inhibition in vivo at 12.5 mg/kg in test [13] was 90%.
For the molecule `COc1ccc(-n2c(=O)c3c(c4cccnc42)OCCC3)cc1`, the inhibition at 3 µM in test [1] amounted to 28%.
On to `O=c1c2c(c3cccnc3n1-c1ccc(Cl)cc1)OCC2`, for which, in [1], the inhibition at 3 µM worked out at 33%.
Take `O=c1c2c(c3cccnc3n1-c1ccc(Cl)cc1)OCCC2`: in test [1], the inhibition at 3 µM is 33%.
Turning to `CC1Cc2c(c3cccnc3n(-c3ccccc3)c2=O)O1` (stereo unspecified), the inhibition at 10 µM in test [8] amounted to 60%.
Regarding `Cc1ccc(-n2c(=O)c3c(c4cccnc42)OCCC3)cc1`, the inhibition at 3 µM in [1] worked out at 27%.
Regarding `O=c1c2c(c3cccnc3n1-c1ccccc1)OCCCC2`, the inhibition in vivo at 2 mg/kg in [2] is 71%. For the same molecule, the inhibition at 3 µM in [1] was found to be 75%.
As to `O=c1c2c(c3cccnc3n1-c1cccc(Cl)c1)OCC2`, in test [14], the inhibition in vivo at 10 mg/kg was found to be 93%. For the same molecule, the inhibition in vivo at 2 mg/kg came out at 62% in [15] and 87% in test [2]. Moreover, the inhibition at 3 µM in test [1] stood at 71%. For the same molecule, the inhibition in vivo at 1 mg/kg in test [16] came out at 21%.
Regarding `O=c1c2c(c3cccnc3n1-c1ccc(Cl)c(Cl)c1)OCCC2`, the inhibition at 3 µM in test [1] is 48%.
For `O=c1c2c(c3cccnc3n1-c1ccccc1)OCCC2`, in [10], the inhibition in vivo at 25 mg/kg came out at 62%. For the same molecule, the inhibition in vivo at 3.13 mg/kg in [17] is 20%. Moreover, the inhibition in vivo at 6.25 mg/kg in [12] turned out to be 51%. The inhibition at 10 µM in [8] came out at 62%. Further, in test [1], the inhibition at 3 µM came out at 26%. For the same molecule, in [13], the inhibition in vivo at 12.5 mg/kg is 43%.
Regarding `O=c1c2c(c3cccnc3n1-c1ccc(Cl)c(Cl)c1)OCC2`, the inhibition in vivo at 5 mg/kg in test [18] was determined as 0%. For the same molecule, the inhibition at 10 µM in test [8] turned out to be 63%. Also, the inhibition at 3 µM in test [1] stood at 62%.

As usually defined, the inhibition is the percentage by which the read-out fell short of the control. Broadly, the inhibition in vivo is how much of the control response was suppressed.
